One block for each molecule: values may come before it. Activity calls are given as the source filed them. The calls are words filed in the database; no cut-off is given here. Non-standard residues stand in square brackets, D forms with d. Residues, ends and D or L forms follow the SMILES beside them. *: point of attachment. AMC = Cc1cc(=O)oc2cc(N*)ccc12; pGlu = O=C1CC[C@@H](C(=O)O)N1; NHBn = c1ccc(CN*)cc1
Key:
Rattus norvegicus [1] = assay: In vivo inhibition of TRH-DE in cannulated Wistar rat assessed as increase in TRH-mediated locomotion at 5 ug in 1 ul, icv after 30 mins; assay type: functional, organism-based
[2] = target: T1, Thyrotropin releasing hormone degrading enzyme (Sus scrofa) (UniProt A0A287AP33); assay: Inhibition of pig brain TRH-DE at 1 mM using Glp-His-ProAMC as substrate by DPP-4-based continuous fluorometric method
[3] = target: T2, Thyrotropin-releasing hormone receptor (Rattus norvegicus, UniProt Q01717); assay: Displacement of [3H]-3MeHis-TRH from TRH receptor in Sprague-Dawley rat cortical membranes
T2 sequence (Q01717 whole entry): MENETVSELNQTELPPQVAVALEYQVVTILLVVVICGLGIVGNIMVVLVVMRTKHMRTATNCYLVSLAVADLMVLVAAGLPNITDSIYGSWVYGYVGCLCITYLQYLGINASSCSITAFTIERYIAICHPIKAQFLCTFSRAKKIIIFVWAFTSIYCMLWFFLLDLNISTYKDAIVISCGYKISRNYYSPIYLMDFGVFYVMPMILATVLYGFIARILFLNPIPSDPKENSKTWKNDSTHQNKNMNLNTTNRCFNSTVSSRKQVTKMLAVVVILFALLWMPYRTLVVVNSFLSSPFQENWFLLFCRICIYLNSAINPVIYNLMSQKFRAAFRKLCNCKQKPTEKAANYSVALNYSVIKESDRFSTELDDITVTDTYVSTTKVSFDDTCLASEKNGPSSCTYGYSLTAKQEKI

Rattus norvegicus [4] = assay: In vivo inhibition of TRH-DE in cannulated Wistar rat assessed as TRH-mediated increase in locomotion at 10 mg/kg, ip measured every 5 mins for 30 secs during 40 mins of observation period; assay type: functional, organism-based
[5] = target: T1, Thyrotropin releasing hormone degrading enzyme (Sus scrofa); assay: Competitive inhibition of pig brain TRH-DE at 12.5 to 50 uM using Glp-His-ProAMC as substrate by Lineweaver-Burk analysis
[6] = target: T1, Thyrotropin releasing hormone degrading enzyme (Sus scrofa); assay: Reversible inhibition of pig brain TRH-DE using Glp-His-ProAMC as substrate at 160 uM preincubated for 75 mins by DPP-4-based continuous fluorometric method
[7] = target: T1, Thyrotropin releasing hormone degrading enzyme (Sus scrofa); assay: Substrate activity at pig brain TRH-DE assessed as retention time at 1 mM incubated for 18 hrs by HPLC analysis
[8] = target: Thyrotropin releasing hormone degrading enzyme (Sus scrofa, UniProt A0A287AP33); assay: Inhibition of pig brain TRH-DE using Glp-His-ProAMC as substrate by DPP-4-based continuous fluorometric method
[9] = target: T1, Thyrotropin releasing hormone degrading enzyme (Sus scrofa); assay: Reversible inhibition of pig brain TRH-DE using Glp-His-ProAMC as substrate at 400 uM preincubated for 75 mins by DPP-4-based continuous fluorometric method
Rattus norvegicus [10] = assay: In vivo inhibition of TRH-DE in cannulated Wistar rat assessed as increase in TRH-mediated wet dog shakes at 5 ug in 1 ul, icv followed by TRH addition measured after 30 mins relative to control; assay type: functional
[11] = target: T1, Thyrotropin releasing hormone degrading enzyme (Sus scrofa); assay: Reversible inhibition of pig brain TRH-DE using Glp-His-ProAMC as substrate at 1 uM preincubated for 75 mins by DPP-4-based continuous fluorometric method
Rattus norvegicus [12] = assay: In vivo inhibition of TRH-DE in cannulated Wistar rat assessed as increase in TRH-mediated sniffing at 10 mg/kg, ip measured every 5 mins for 30 secs during 40 mins observation period; assay type: functional, organism-based
[13] = target: T1, Thyrotropin releasing hormone degrading enzyme (Sus scrofa); assay: Inhibition of pig brain TRH-DE at 1 uM using Glp-His-ProAMC as substrate by DPP-4-based continuous fluorometric method
Rattus norvegicus [14] = assay: In vivo inhibition of TRH-DE in cannulated Wistar rat assessed as increase in TRH-mediated grooming at 10 mg/kg, ip measured every 5 mins for 30 secs during 40 mins observation period; assay type: functional, organism-based
Rattus norvegicus [15] = assay: In vivo inhibition of TRH-DE in cannulated Wistar rat assessed as increase in TRH-mediated wet dog shakes at 10 mg/kg, ip measured for last 25 mins of the 40 mins observation period; assay type: functional, organism-based
Rattus norvegicus [16] = assay: In vivo inhibition of TRH-DE in cannulated Wistar rat assessed as increase in TRH-mediated chewing at 10 mg/kg, ip measured every 5 mins for 30 secs during 40 mins observation period; assay type: functional, organism-based
[17] = target: T3, Thyrotropin-releasing hormone-degrading ectoenzyme (Homo sapiens, UniProt Q9UKU6); assay: Competitive inhibition of TRH-DE (unknown origin)
T3 sequence (Q9UKU6 whole entry): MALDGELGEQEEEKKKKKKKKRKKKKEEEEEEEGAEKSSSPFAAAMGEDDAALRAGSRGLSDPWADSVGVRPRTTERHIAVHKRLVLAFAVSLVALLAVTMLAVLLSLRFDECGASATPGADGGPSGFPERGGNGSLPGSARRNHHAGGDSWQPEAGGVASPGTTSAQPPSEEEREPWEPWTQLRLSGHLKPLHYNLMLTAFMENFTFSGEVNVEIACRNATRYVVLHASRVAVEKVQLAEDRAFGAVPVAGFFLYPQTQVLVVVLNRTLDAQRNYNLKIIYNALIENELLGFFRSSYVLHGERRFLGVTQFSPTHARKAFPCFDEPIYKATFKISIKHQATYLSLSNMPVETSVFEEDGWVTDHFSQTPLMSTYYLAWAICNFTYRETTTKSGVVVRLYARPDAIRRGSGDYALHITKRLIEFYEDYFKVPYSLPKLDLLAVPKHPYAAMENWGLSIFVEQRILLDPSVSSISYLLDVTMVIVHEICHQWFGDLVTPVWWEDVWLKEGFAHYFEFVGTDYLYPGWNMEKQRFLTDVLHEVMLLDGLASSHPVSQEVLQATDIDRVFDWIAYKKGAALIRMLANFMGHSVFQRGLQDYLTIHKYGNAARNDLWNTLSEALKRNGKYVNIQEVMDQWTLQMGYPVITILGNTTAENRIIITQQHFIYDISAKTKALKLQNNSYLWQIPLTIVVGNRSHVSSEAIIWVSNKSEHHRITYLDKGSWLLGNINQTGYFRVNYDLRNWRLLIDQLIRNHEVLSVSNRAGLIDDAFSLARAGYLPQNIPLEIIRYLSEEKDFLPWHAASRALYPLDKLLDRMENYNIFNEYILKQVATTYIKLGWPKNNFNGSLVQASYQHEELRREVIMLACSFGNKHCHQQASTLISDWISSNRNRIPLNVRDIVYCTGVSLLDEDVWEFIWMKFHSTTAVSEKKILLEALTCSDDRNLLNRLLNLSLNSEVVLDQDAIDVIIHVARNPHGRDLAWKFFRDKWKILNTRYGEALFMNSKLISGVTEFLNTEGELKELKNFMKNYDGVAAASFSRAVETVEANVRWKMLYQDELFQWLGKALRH

Rattus norvegicus [18] = assay: Behavioral effect in cannulated Wistar rat assessed as number of wet dog shakes at 10 mg/kg, ip measured every 5 mins for 30 secs during 40 mins observation period; assay type: functional
[19] = substrate: O=C1CC[C@@H](C(=O)N[C@@H](Cc2cnc[nH]2)C(=O)N2CCC[C@H]2C(=O)O)N1; assay: (§1) Substrate activity at pig brain TRH-DE assessed as Vmax after 18 hrs by HPLC analysis; conditions: Sus scrofa
[20] = substrate: NC(=O)[C@@H]1CCCN1C(=O)[C@H](Cc1ccc(O)cc1)NC(=O)[C@@H]1CCC(=O)N1; assay: as §1; conditions: Sus scrofa
[21] = substrate: NC(=O)[C@@H]1CCCN1C(=O)[C@H](Cc1cccs1)NC(=O)[C@@H]1CCC(=O)N1; assay: as §1; conditions: Sus scrofa
[22] = substrate: NC(=O)[C@@H]1CCCN1C(=O)[C@H](Cc1ccccc1)NC(=O)[C@@H]1CCC(=O)N1; assay: as §1; conditions: Sus scrofa
[23] = substrate: NC(=O)[C@@H]1CCCN1C(=O)[C@H](Cc1c[nH]cn1)NC(=O)[C@@H]1CCC(=O)N1; assay: as §1; conditions: Sus scrofa
[24] = substrate: Cc1cc(=O)oc2cc(NC(=O)[C@@H]3CCCN3C(=O)[C@H](Cc3cnc[nH]3)NC(=O)[C@@H]3CCC(=O)N3)ccc12; assay: as §1; conditions: Sus scrofa
[25] = substrate: O=C1CC[C@@H](C(=O)N[C@@H](Cc2cnc[nH]2)C(=O)N2CCC[C@H]2C(=O)O)N1; assay: (§2) Substrate activity at pig brain TRH-DE assessed as Km by discontinuous fluorometric method; conditions: Sus scrofa
[26] = substrate: NC(=O)[C@@H]1CCCN1C(=O)[C@H](Cc1ccc(O)cc1)NC(=O)[C@@H]1CCC(=O)N1; assay: as §2; conditions: Sus scrofa
[27] = substrate: NC(=O)[C@@H]1CCCN1C(=O)[C@H](Cc1cccs1)NC(=O)[C@@H]1CCC(=O)N1; assay: as §2; conditions: Sus scrofa
[28] = substrate: NC(=O)[C@@H]1CCCN1C(=O)[C@H](Cc1ccccc1)NC(=O)[C@@H]1CCC(=O)N1; assay: as §2; conditions: Sus scrofa
[29] = substrate: NC(=O)[C@@H]1CCCN1C(=O)[C@H](Cc1c[nH]cn1)NC(=O)[C@@H]1CCC(=O)N1; assay: as §2; conditions: Sus scrofa
[30] = substrate: Cc1cc(=O)oc2cc(NC(=O)[C@@H]3CCCN3C(=O)[C@H](Cc3cnc[nH]3)NC(=O)[C@@H]3CCC(=O)N3)ccc12; assay: as §2; conditions: Sus scrofa

inhibition [2]: 97%
Ki [3]: 7.08 µM
inhibition [5]: Active
inhibition [6]: Active
Molecule: NC(=O)C[C@H](NC(=O)[C@@H]1CCC(=O)N1)C(=O)N1CCC[C@H]1C(N)=O ([pGlu]-Asn-Pro-NH2)
inhibition (Rattus norvegicus [1]): Active
inhibition (Rattus norvegicus [4]): Active

Retention time [7]: 18.4 min
Ki [8]: 22.4 µM
Molecule: NC(=O)C[C@H](NC(=O)[C@@H]1CCC(=O)N1)C(=O)N1CCC[C@H]1C(=O)NC(=O)C1CCCc2ccccc21 (stereo partly drawn)

Retention time [7]: 14.3 min
Molecule: NC(=O)C[C@H](NC(=O)[C@@H]1CCC(=O)N1)C(=O)N1CCC[C@H]1C(=O)NCc1ccccc1 ([pGlu]-Asn-Pro-NHBn)

inhibition [2]: 83%
inhibition [9]: Active
Molecule: NC(=O)CC[C@H](NC(=O)[C@@H]1CCC(=O)N1)C(=O)N1CCC[C@H]1C(N)=O ([pGlu]-Gln-Pro-NH2)

Retention time [7]: 15 min
Molecule: COc1ccc(NC(=O)[C@@H]2CCCN2C(=O)[C@H](CC(N)=O)NC(=O)[C@@H]2CCC(=O)N2)cc1

inhibition [11]: Active
inhibition [13]: 50%
Ki [3]: 47.9 µM
Ki [8]: 0.41 to 0.97 µM
Molecule: Cc1cc(=O)oc2cc(NC(=O)[C@@H]3CCCN3C(=O)[C@H](CC(N)=O)NC(=O)[C@@H]3CCC(=O)N3)ccc12 ([pGlu]-Asn-Pro-{AMC})
fold change (FC) (Rattus norvegicus [10]): 18
inhibition (Rattus norvegicus [12]): Active
inhibition (Rattus norvegicus [14]): Active
inhibition (Rattus norvegicus [15]): Active
inhibition (Rattus norvegicus [16]): Active

Ki [17]: 8 µM
Ki [3]: 0.0224 µM
Molecule: O=C(O)C(Cc1ccccc1)N[C@@H](Cc1cn(Cc2ccccc2)cn1)C(=O)Nc1ccc2ccccc2c1 (stereo partly drawn)
Activity (Rattus norvegicus [18]): 0

Molecule: NC(=O)C[C@H](NC(=O)[C@@H]1CCC(=O)N1)C(=O)N1CCC[C@H]1C(=O)Nc1ccccc1CO
Retention time [7]: 11.9 min
Ki [8]: 20.6 µM

B1: Thyrotropin releasing hormone degrading enzyme (Sus scrofa), A0A287AP33 (protein)
chain: MALDGERGEQEEEKKKKKKKKKRKKKKEEEGAKKSSSPFVATMGENDAALRAGGRGLSDPWADSVGVRPRTTERHITVHKRLVLAFAVSIVALLAVTMLAVLLSLRFDECGASIPPGADGGPAGFPARGGNESLPGSSRRDHHAGGDSSQPGAGREDTPETPSAQPPSEEEQEQWQPWTQLRLSGHLKPLHYNLMLTAFMENFTFSGEVNVEIACRNATRYVVLHASRVAVEKVQVAEDRVAGAVPVAGFFLYPQTQVLVVVLNRTLDAQRNYNLKIIYNALIENELLGFFRSSYVLHGERRFLGVTQFSPTHARKAFPCFDEPIYKATFKISIKHQATYLSLSNMPVETSVFEEDGWVTDHFSQTPLMSTYYLAWAICNFTYRETTTKSGVVVRLYARPDAIRRGSGDYALHITKRLIEFYEDYFKVPYSLPKLDLLAVPKHPYAAMENWGLSIFVEQRILLDPSVSSISYLLDVTMVIVHEICHQWFGDLVTPVWWEDVWLKEGFAHYFEFVGTDYLYPGWNMEKQRFLTDVLHEVMLLDGLASSHPVSQEVLRATDIDRVFDWIAYKKGAALIRMLANFMGHSVFQRGLQDYLTIHKYGNAARNDLWNTLSEALKRNGKYVNIQEVMDQWTLQMGYPVITIFGNTTAENRIIITQQHFIYDISAKAKPHELQNSSYLWQIPLTIVVGNRSHVSSEAIIWVSNKTEHHRITSLNKGSWLLGNINQTGYFRVNYDLRNWRLLIDQLIRNHEVLSVSNRAGLIDDAFSLARAGYLPQNIPLEIIRYLSEEKDFLPWHAASRALYPLDKLLDRMEKYNVFNEYILKQVATTYIKLGWPKNNFNGSLVQASYQHEELRREVIMLACSFGNKHCHQQASTLISDWISSNRNRIPLNVRDIVYCTGVSLLDEDVWEFIWMKFHSTTAISEKKILLEALTCSDDRNLLNRLLNLSLNSEVVLDQDAIDVIIHVARNPHGRDLAWKFFRDKWKILNTRYGEALFMNSKLISGVTEFLNTEGELKELKNFMKSYDGVAAASFSRAVETVEANVRWKMLYQDELFQWLGKALRH
Vmax [19]: 4.43 U/mg
Vmax [20]: 0.67 U/mg
Vmax [21]: 2.19 U/mg
Vmax [22]: 1.64 U/mg
Vmax [23]: 2.63 U/mg
Vmax [24]: 0.11 U/mg
Km [25]: 311 µM
Km [26]: 15 µM
Km [27]: 34 µM
Km [28]: 55 µM
Km [29]: 35 µM
Km [30]: 3.1 µM

Source: ChEMBL document CHEMBL3880382, “TRH-like peptide derivatives as inhibitors of the TRH-degrading ectoenzyme” (2010)
